According to US10617557B2, “Combined drug delivery methods and apparatus” (ForSight Vision4, Inc., priority 2010, dated 2020):
≈ marks a conversion by molar mass, not a printed value. Read-outs that look alike come from different tables or passages of the source.

Legend:
COX = conditions: cited from earlier work
[1] = cited from earlier work
[2] = Calculated release of COX inhibitors from the therapeutic device into the vitreous; set-up: species or system human; conditions: from half-life 3 hr
[3] = representative of a small molecule, input of the calculation; cited from earlier work
[4] = vitreous, input of the calculation; cited from earlier work
[5] = tested on: VEGF-induced cell proliferation, or receptor binding; conditions: depending on the target assay; cited from earlier work
[6] = Diffusion coefficients of proteins and small molecules; type: physicochemical; conditions: simulation parameter, Tables 4A and 4E
Text: If the reservoir solution is aqueous or has a viscosity similar to water, the value for the diffusion coefficient of the therapeutic agent (TA) in water at the temperature of interest may be used.
Small molecules have a diffusion coefficient similar to fluorescein (MW=330, D=4.8 to 6 e-6 cm^2/s from Stay, M S et al. Pharm Res 2003, 20(1), pp. 96-102). For example, the small molecule may comprise a glucocorticoid such as triamcinolone acetonide having a molecular weight of about 435.

[7] = human eye; listed as ranibizumab; cited from earlier work
[8] = rabbit and monkey, cited from earlier work
[9] = tested on: Grade IV choroidal neovascularization (CNV) lesions; conditions: intravitreal injection, all doses tested, cynomolgus monkeys; cited from earlier work

Nc1c(CC(=O)O)cccc1C(=O)c1ccc(Br)cc1 [bromfenac]
IC50 (ug/ml) (Inhibitory Level)* (COX): 0.0025 µg/mL (≈ 0.00748 µM)

Cc1ccc(-c2cc(C(F)(F)F)nn2-c2ccc(S(N)(=O)=O)cc2)cc1 [celecoxib]
Solubility in water [1]: approximately 3 ug/ml

O=C(c1ccccc1)c1ccc2n1CCC2C(=O)O (stereo not drawn) [ketorolac]
Rate constant, k [2]: 5.545 day⁻¹
Diffusion coeff [3]: 5.0E−06 cm2/s
IC50 (ug/ml) (Inhibitory Level)* (COX): 0.007 µg/mL (≈ 0.0274 µM)
Half-life [4]: 3 h

C[C@]12C=CC(=O)C=C1CC[C@H]1[C@@H]3C[C@@H](O)[C@](O)(C(=O)CO)[C@@]3(C)C[C@H](O)[C@@]12F [triamcinolone]
IC50 [5]: ~1.5 nM

ranibizumab [Lucentis™]
Diffusion coeff [6]: 1.0E−06 cm2/s
Half-life in the vitreous [7]: 220 h
Half-life in the vitreous [8]: two to four
Half-life in the vitreous ([8]; listed as ranibizumab): approximately 3 days
Development of Grade IV CNV lesions [9]: completely inhibited
